Among the data in PubChem BioAssay AID2305 (GlaxoSmithKline (GSK), 2010) are IC50 values, retold here.

Molecules are shown by their SMILES.

The test deals with P. falciparum 3D7 growth, pLDH absorbance. In words: blood-stage malaria parasite growth potency – strain 3D7, dose response (AID 2305).
Compound `Cc1ccc(-c2nc(NC(=O)Nc3ccc(C(F)(F)F)cc3)sc2C)cc1Cl` returned an IC50 of 660 nM.
The compound `CN1CCC(NC(=O)c2cccc(Nc3cc(Nc4cccc(Br)c4)ncn3)c2)CC1` displayed an IC50 of 1010 nM.
For `Cc1ccc2[nH]c3c(c2c1)CC(C(=O)NCCC(C)C)NC31CCN(Cc2ccccc2)CC1` (stereo not given) the value was 930 nM; for `c1cc(COc2ccc(C3=NCCN3)cc2)nc(COc2ccc(C3=NCCN3)cc2)c1`, 150 nM; for `Cc1ccc(Nc2nc(C)cc(NC3CCCC3)n2)cc1`, 290 nM.
The value for `O=C(Nc1ccc(-c2nc3ccc(NC(=O)c4ccc(Br)cc4)cc3[nH]2)cc1)c1ccc(Br)cc1` was 790 nM; that for `N#Cc1ccc2c(c1)CCN(CCC1CCC(NC(=O)c3cccc(-c4ccc(F)cc4)c3)CC1)CC2` (stereo not given) was 820 nM.
For `COc1cc2nc(C)nc(Nc3ccc(Oc4ccccc4)cc3)c2cc1OC` the value was 720 nM.
In the case of `COc1cc2nc(NCCc3ccccc3)nc(NCc3ccc(C#N)cc3)c2cc1OC`, the half-maximal inhibitory concentration (IC50) was 150 nM.
The value for `CC1CN(Cc2cccc(-c3ccc(-c4nc5ccccc5[nH]4)cc3)c2)CC(C)O1` (stereo not given) was 860 nM; that for `O=C(Nc1ccccc1Oc1ccccc1)NC1CCN(c2ccnc3cc(Cl)ccc23)C1` (stereo not given) was 170 nM.
The compound `COc1ccc(OC)c(C=NNc2nc3ccccc3[nH]2)c1` had an IC50 of 730 nM.
In turn, `O=C(Cc1cnc[nH]1)Nc1cccc(-c2cccc(-c3nc4ccc(C(F)(F)F)cc4[nH]3)c2)c1` gave an IC50 of 230 nM.
The value for `O=C(O)c1cc(C(F)(F)F)co1` was 830 nM; that for `COc1cc2nc(N3CCC(CNC(=O)c4ccc(-c5ccc(C(=O)N(C)C)cc5)c(OCCO)c4)CC3)nc(N)c2cc1OC` was 730 nM; that for `COc1ccc(-c2ccc(NC(=O)c3cccc(C#N)c3)cc2)cc1CN1CCCN(C)CC1` was 290 nM.
For `Cc1cc(N2CCCCC2)nc2ccc(NC(=O)c3cncc(Br)c3)cc12` the value was 720 nM; for `CC(=O)N1N=C(c2ccc(F)cc2)Sc2c1nc(-c1ccccc1)n2C(C)=O`, 650 nM.
The value for `COc1cc(CNCCC(C)C)ccc1OCc1cccc(COc2ccc(CNCCC(C)C)cc2OC)c1` was 490 nM.
`Cc1ccc(C(=O)Nc2ccc(OC3CCN(CCC(C)C)C3)c(Cl)c2)cc1` (stereo not given) had an IC50 of 990 nM.
The value for `CC(C)(C)NS(=O)(=O)c1cc(C(=O)N2CCC(CCN3CCC(O)(c4cccc(C(F)(F)F)c4)CC3)(c3cccc(F)c3)CC2)c(Cl)cc1F` was 860 nM; that for `CCCCCCN1CCCN(Cc2ccc(C(=O)Nc3cccc(CC)c3)cc2)CC1` was 670 nM.
The value for `Cc1cccc(-c2nn(-c3ccccc3)c3[nH]c(=O)c(CN4CCSCC4)cc23)c1` was 1010 nM; that for `Cc1cccc2[nH]c(-c3ccc(-c4ccc(NC(=O)C(C)CN(C)C)cc4)s3)nc12` (stereo not given) was 410 nM.
For `c1ccc(Oc2ccc(Nc3ccnc(Nc4ccc(CN5CCOCC5)cc4)n3)cc2)cc1` the value was 940 nM.
`O=C(Nc1cccc(-c2nn3ccccc3c2-c2ccnc(Nc3cccc(-c4cnco4)c3)n2)c1)C1CCCCC1` yielded a 50% inhibitory concentration (IC50) of 260 nM.
`O=C(NCCCCN1CCC(c2ccc3c(c2OCCN2CCCC2)CCCC3)CC1)c1ccc(-c2ccc(C(F)(F)F)cc2)cc1` showed an IC50 of 450 nM.
The value for `CC(Cc1ccc(NS(=O)(=O)c2ccc(CC(C)NCCc3cccc(Cl)c3)cc2)cc1)NCCc1cccc(Cl)c1` (stereo not given) was 780 nM.
As to `CCN(CC)CCN1C(=O)C(O)(c2ccccc2Cl)c2c1cc(C(N)=O)cc2C(F)(F)F` (stereo not given), the IC50 came to 700 nM.
For `Cc1cccc(-c2ccc(NC(=O)Nc3ccc4nccc(N5CCN(C)CC5)c4c3)cc2C)n1` the value was 210 nM; for `Cc1cc(N[C@@H](CC(C)C)C(=O)NCCCOC(C)C)nc(NCCc2ccc(F)cc2)n1`, 1250 nM; for `CC(CN1CCN(C)CC1)C(=O)Nc1cccc(-c2ccc(-c3nc4ccc(C(F)(F)F)cc4[nH]3)cc2)c1` (stereo not given), 610 nM.
The value for `FC(F)(F)COc1c(CNCCCCCCNCc2ccc3ccccc3c2OCC(F)(F)F)ccc2ccccc12` was 760 nM; that for `Cc1cc2ncc(C(N)=O)c(Nc3ccc(N4CCOCC4)cc3)c2cc1S(C)(=O)=O` was 670 nM.
The value for `CCOC(=O)C1=C(C)NC2=C(C(=O)C(C(=O)OC)C(C)C2)C1c1cc(Br)c(OCC)c(OC)c1` (stereo not given) was 700 nM; that for `CCN(CC)CCN(Cc1ccc(-c2ccc(C(F)(F)F)cc2)cc1)C(=O)Cn1c(/C=C/c2ccco2)nc(=O)c2ccccc21` was 870 nM.
Take `CCN(CC)Cc1ccc2c(=O)cc(CCc3cccc(F)c3F)n(CC(=O)N(Cc3ccc(-c4ccc(C(F)(F)F)cc4)cc3)C(C)C)c2c1`: the IC50 came out at 780 nM.
For `O=C(Nc1cccc(C(F)(F)F)c1)c1cccc(S(=O)(=O)NCC2CCCN2CC2CCCCC2)c1` (stereo not given) the value was 1110 nM; for `Cc1cc(NN=Cc2ccc(Cl)cc2)c2cccc(C)c2n1`, 720 nM.
The value for `OC1(Cc2ccccc2)CCN(Cc2cccc(-c3c[nH]c4nc(NC5CCCC5)ncc34)c2)CC1` was 930 nM.
For `CCCCNC(=O)[C@@H](NC(=O)c1ccc(O)c(-c2ccc(Cl)c(Cl)c2)c1)C(C)C` the value was 230 nM; for `N#CN1CC[C@@H](OC(=O)N[C@@H]2C[C@H]2c2ccccc2)C1`, 1340 nM.
Compound `O=C(/C=C/c1ccc(Cl)c(Cl)c1)N1CCC(NCc2ccc3[nH]ccc3c2)CC1` showed an IC50 of 1020 nM.
The value for `O=C(Nc1ccc(OC2CCN(Cc3ccsc3)C2)c(Cl)c1)c1cccs1` (stereo not given) was 960 nM.
In turn, `CN(C)CCCn1c(C(=O)OC(c2ccccc2)c2ccccc2)cc2cc(OCc3ccccc3)ccc21` displayed an IC50 of 200 nM.
`O=C(Nc1ccc(-c2nc3ccccc3[nH]2)cc1)c1cccc([N+](=O)[O-])c1`: the IC50 stood at 220 nM.
The compound `O=C(Nc1cccc(Oc2ccccc2)c1)N[C@H]1CCN(Cc2ccc(OCCCN3CCCCC3)cc2)C1` gave an IC50 of 720 nM.
For `CCN(CCCN1CCCCC1)c1cc(C)nc(Nc2cccc(C(F)(F)F)c2C)n1` the value was 610 nM; for `Oc1ccc(Cl)cc1CN1CCC(CCOC(c2ccccc2)c2ccccc2)CC1`, 650 nM.
The value for `O=C1COc2ccc3ccccc3c21` was 700 nM.
In turn, `Cc1cc(N2CCCC2)nc(Nc2ccc(NC(=O)c3ccc(Br)o3)cc2)n1` gave an IC50 of 620 nM.
In turn, `CCCOc1ccc2ccccc2c1CNCCCCCCNCc1c(OCCC)ccc2ccccc12` came in with a concentration for half-maximal inhibition (IC50) of 790 nM.
For `CC(C)(C)c1ccc2nc(-c3ccc(/C=C/C(=O)NC4CCN(Cc5ccccc5)CC4)cc3)[nH]c2c1` the value was 590 nM.
For `CNc1ccc(CNCc2cccc(-c3ccc(-c4nc5ccccc5[nH]4)cc3)c2)cc1` the value was 300 nM.
For `CC(=O)N(C)c1cccc(C(=O)Nc2cccc(-c3cccc(-c4nc5ccc(C(F)(F)F)cc5[nH]4)c3)c2)c1`, the IC50 turned out to be 240 nM.
The value for `Cc1[nH]c2ccccc2c1C1CCN(CC2CCC(NC(=O)/C=C/c3ccc(Cl)c(Cl)c3)CC2)CC1` (stereo not given) was 820 nM.
For `CC1Cc2ccccc2N1CC(=O)Nc1cc(C(F)(F)F)ccc1-n1cncn1` (stereo not given), the IC50 was 320 nM.
The value for `CC(CNC(=O)C(c1cc2ccccc2o1)N1CCN(C(c2ccccc2)c2ccccc2)CC1)c1ccccc1` (stereo not given) was 630 nM.
Compound `Cn1c(N)c(C(=O)CSc2ncc(-c3ccc(F)cc3)n2Cc2ccccc2)c(=O)n(C)c1=O` displayed an IC50 of 570 nM.
The value for `CC(=O)NCCCCC1NC2(C(=O)N(Cc3ccc(C(C)(C)C)cc3)c3ccccc32)C2C(=O)N(C3CCCCC3)C(=O)C12` (stereo not given) was 790 nM.
